Assays:
[1] = test system: patients with MDS (IPSS low and intermediate-1 risk); settings: one patient (Quddus et al.); cited from earlier work
[2] = test system: patients with MDS (IPSS low and intermediate-1 risk); experiment: Clinical study of Telintra (ezatiostat hydrochloride) in patients with MDS, two dosing schedules; settings: for patients with significant RBC transfusion reduction: 5 of 11 patients
Experimental: Eighty-seven patients were randomized and treated at 23 investigational sites. After initial dose ranging in 14 patients, two dose levels were selected for further study. Subsequently, 37 patients were treated at 3 grams daily for two weeks followed by a one week rest period, and 36 patients were treated at 2 grams daily for three weeks followed by a one week rest period. The data on these 73 patients was pooled for this preliminary analysis.
The median age was 72 years, with a patient population distribution of International Prognostic Scoring System (IPSS) low risk (23 patients, 32%) and intermediate-1 risk (50 patients, 68%).

## CCOC(=O)[C@@H](N)CCC(=O)N[C@@H](CSCc1ccccc1)C(=O)N[C@@H](C(=O)OCC)c1ccccc1 [Telintra®, ethyl (2S)-2-amino-5-[[(2R)-3-benzylsulfanyl-1-[[(1R)-2-ethoxy-2-oxo-1-phenylethyl]amino]-1-oxopropan-2-yl]amino]-5-oxopentanoate]
[1]
  duration of complete remission following discontinuation of therapy: more than 12 months
[2]; 1 g b.i.d. (2 grams per day) 3 weeks on & 1 week off
  Duration of HI-E Response, Median (95% CI): 46.1 (10.0-46.1) Weeks
[2]; 1.5 g b.i.d. (3 grams per day) 2 weeks on & 1 week off
  Duration of HI-E Response, Median (95% CI): 18.4 (3.1-51.0) Weeks
[2]; 4 of 38 RBC transfusion-dependent patients, pooled
  patients achieving RBC transfusion independence: 11%
[2]; 11 of 38 RBC transfusion-dependent patients, pooled
  patients with clinically significant RBC transfusion reductions (reduction of 4 U/8 weeks, IWG 2006): 29%
[2]; all patients treated
  effect of prior DMTI treatment on GI adverse events: increased incidence of GI AEs
  incidence of diarrhea, Grade 1: 25%
  incidence of diarrhea, Grade 2: 7%
  incidence of diarrhea, Grade 3: 3%
  incidence of nausea, Grade 1: 45%
  incidence of nausea, Grade 2: 16%
  incidence of nausea, Grade 3: 1%
  incidence of vomiting, Grade 1: 30%
  incidence of vomiting, Grade 2: 12%
  incidence of vomiting, Grade 3: 2%
[2]; all patients, pooled
  number of cytogenetic complete responses: three
[2]; logistic regression analysis
  effect of prior Revlimid treatment on HI-E response: enhance HI-E response
[2]; logistic regression analysis, p=0.023
  change in the odds for a HI-E response with prior DMTI treatment: five-fold decrease
[2]; no prior Revlimid, no prior DMTI
  patients with significant RBC transfusion reduction: 45%
[2]; of the four patients with del 5q minus
  number of patients with complete cytogenetic response: two
[2]; prior Revlimid, no prior DMTI, 3 of 11 patients
  patients achieving transfusion independence: 27%
[2]; prior Revlimid, no prior DMTI
  patients with significant RBC transfusion reduction: 45%
